# Experimental data: US20220000880A1, “METHOD AND COMPOSITION EMBODIMENTS FOR TREATING ACUTE MYELOID LEUKEMIA” (Rigel Pharmaceuticals, Inc., priority 2018, published 2022)
# What was measured:
# [1] = test system: AML samples expressing high levels of HOXA9 and MEIS1; assay: apoptosis measurement (Annexin V) in AML samples; assay type: cell-based, human; details: 1 μM, 5 μM and 10 μM for 24 hours; alone or in combination
# Method: Isolation of bone marrow mononuclear cells from human bone marrow aspirates can be achieved by Ficoll density centrifugation (400×g, RT, 45 min). CD34+ bone marrow mononuclear cells can be isolated using the human CD34 MultiSort Kit (Miltenyi Biotec). […] The cells can be passed through a mesh to remove cell clumps and can then be incubated in MACS buffer, which can be supplemented with FcR Blocking Reagent, and CD34 MultiSort MicroBeads for a particular time and at a particular temperature (e.g., 30 minutes at 4° C.). Excess beads are removed by washing and then magnetic separation using LS columns is carried out. After elution, cells are washed once in MACS buffer and can be resuspended in SFEM supplemented with diverse cytokines. Flow cytometry can be used to assess the purity of the isolated cells. […] The Annexin V Apoptosis Detection Kit I (BD Bioscience) can be used to detect apoptotic cell death. Cells are harvested and washed once with PBS, and can be resuspended in Annexin V binding buffer (200 μl 1×) containing 5 μl Annexin-PE or Annexin-APC and incubated at room temperature in the dark. After washing (e.g., once with 1× Annexin binding buffer), cells are resuspended in 1× Annexin V binding buffer containing 7-AAD (5 μl) and incubated at room temperature in the dark. 1× Annexin V binding buffer (200 μl) is added and cells are analysed using a BD LSRFortessa flow cytometer.
# [2] = test system: HOXA9/MEIS1 cells; assay: time-lapse microscopy and single-cell tracking of cell fate; assay type: cell-based
# Description: The effect of Syk inhibition in HOXA9 and HOXA9/MEIS1 cells by monitoring the fate of individual cells and their progeny by time-lapse microscopy and single-cell tracking also can be carried out.
# [3] = test system: AML cell lines; assay: cytotoxicity by Annexin V/PI staining against a panel of AML cell lines; assay type: cell-based; set-up: cytotoxic activity, agent alone: dose or concentration left out as unconfirmed
# Method: In this example, the ability of 6-((5-fluoro-2-((3,4,5-trimethoxyphenyl)amino)pyrimidin-4-yl)amino)-2,2-dimethyl-2H-pyrido[3,2-b][1,4]oxazin-3(4H)-one (or a prodrug thereof) to synergistically enhance cytotoxic activity of venetoclax in AML cell lines is evaluated. Cytotoxic effects of venetoclax can be determined using Annexin V/PI staining against a panel of different AML cell lines.
# [4] = test system: AML cell line xenograft; assay: mouse model xenografted with an AML cell line, tumor growth; assay type: in vivo; details: intraperitoneal injections; subcutaneous tumors ≥250 mm^3
# Description: The activity of 6-((5-fluoro-2-((3,4,5-trimethoxyphenyl)amino)pyrimidin-4-yl)amino)-2,2-dimethyl-2H-pyrido[3,2-b][1,4]oxazin-3(4H)-one (or a prodrug thereof), alone, also can be evaluated. To do so, activity of 6-((5-fluoro-2-((3,4,5-trimethoxyphenyl)amino)pyrimidin-4-yl)amino)-2,2-dimethyl-2H-pyrido[3,2-b][1,4]oxazin-3(4H)-one can be tested in the appropriate mouse model xenografted with an AML cell line. Tumors can be injected subcutaneously (e.g., in the right flank) and allowed to grow until they reached an appropriate size (e.g., ≥250 mm^3). Intraperitoneal injections can be used to introduce the treatment. […] In some examples, significant differences in tumor volume between mice receiving 6-((5-fluoro-2-((3,4,5-trimethoxyphenyl)amino)pyrimidin-4-yl)amino)-2,2-dimethyl-2H-pyrido[3,2-b][1,4]oxazin-3(4H)-one alone and mice receiving 6-((5-fluoro-2-((3,4,5-trimethoxyphenyl)amino)pyrimidin-4-yl)amino)-2,2-dimethyl-2H-pyrido[3,2-b][1,4]oxazin-3(4H)-one in combination with venetoclax can be observed.
# [5] = test system: mice transplanted with HOXA9/MEIS1 cells; assay: mice transplanted with HOXA9/MEIS1 cells treated with fostamatinib-impregnated feed; assay type: in vivo, mouse; details: feed at 3 g/kg, 5 g/kg or 8 g/kg
# Method: In this example, mice transplanted with HOXA9 MEIS1 or HOXA9 cells are treated with fostamatinib using feed impregnated with fostamatinib at 3 g/kg, 5 g/kg or 8 g/kg (AIN-76A rodent diet).
smiles,measurement,setting,value
"COc1cc(Nc2ncc(F)c(Nc3ccc4c(n3)NC(=O)C(C)(C)O4)n2)cc(OC)c1OC [6-((5-fluoro-2-((3,4,5-trimethoxyphenyl)amino)pyrimidin-4-yl)amino)-2,2-dimethyl-2H-pyrido[3,2-b][1,4]oxazin-3(4H)-one]",sensitivity of AML samples with high HOXA9 and MEIS1 compared with samples with weak MEIS1 expression,[1],more sensitive
same,cell death compared with cells treated with DMSO,[2],significant increase
same,effect on cytotoxic activity of venetoclax,[3]; cells treated at different concentrations for e.g. 2 hours,markedly increase the cytotoxic activity of venetoclax
same,cytotoxic effects on its own,[3]; compound (or prodrug) alone,absence of any substantial cytotoxic effects
same,"tumor growth, compound alone",[4],partially inhibit tumor growth
"CC1(C)CCC(CN2CCN(c3ccc(C(=O)NS(=O)(=O)c4ccc(NCC5CCOCC5)c([N+](=O)[O-])c4)c(Oc4cnc5[nH]ccc5c4)c3)CC2)=C(c2ccc(Cl)cc2)C1 [venetoclax, reference compound]","cytotoxic activity, agent alone","[3]; venetoclax alone, concentrations ranging",only modest activity
"COc1cc(Nc2ncc(F)c(Nc3ccc4c(n3)N(COP(=O)(O)O)C(=O)C(C)(C)O4)n2)cc(OC)c1OC [fostamatinib, 6-((5-fluoro-2-((3,4,5-trimethoxyphenyl)amino)pyrimidin-4-yl)amino)-2,2-dimethyl-3-oxo-2,3-dihydro-4H-pyrido[3,2-b][1,4]oxazin-4-yl)methyl dihydrogen phosphate]",survival of mice,"[5]; longer treatment (e.g., 20 days)",significantly prolong the survival
same,percentage of leukemic cells,[5]; one week of treatment,reduce the percentage of leukemic cells
